Where “and” joins values, the source holds several entries; their conditions need not be identical. Equal values may be shown once. Entries after “also recorded” stand apart in the source; their conditions may differ. Read-outs that look alike come from different tables or passages of the source.
Key:
SL1 RNA = experiment: RNA-detected NMR binding site mapping (2D-1H,1H-TOCSY and 1D-1H); set-up: species or system SARS-CoV-2; details: for 1H CSPs [ppm] A12H2 / 1H CSPs [ppm] A29H2: RNA-detected 1D-1H
SL1 Δbulge RNA = format: binding, SARS-CoV-2
[1] = test system: SL1 RNA labeled with 2AP at position A27; experiment: 2-Aminopurine fluorescence binding assay; set-up: species or system SARS-CoV-2; details: 0.5 μM 2AP-SL1, compound 0-400 μM, 25 °C, pH 6.2
SL1 wt RNA = experiment: NMR-based KD estimation, ligand-detected 1D-1H titration; format: binding, SARS-CoV-2
[2] = pH 6.2
[3] = test system: SL1 (wt)-Nanoluciferase mRNA; format: biochemical, SARS-CoV-2
[4] = test system: β-Globin-Nanoluciferase mRNA; experiment: Cell-free translation assay in rabbit reticulocyte lysate, Nanoluciferase readout; format: biochemical; details: 0.2 μM mRNA, 2 μM compound
[5] = test system: SL1 Δbulge-Nanoluciferase mRNA; format: biochemical, SARS-CoV-2
[6] = test system: SARS-CoV-2 SL1 RNA (SL1 wt); format: binding; details: for wLOGSY factor / T2 reduction [%] / CSP [Hz]: 10 μM SL1 wt, 200 μM ligand; for wLOGSY factor / T2 reduction [%]: pH 6.2; for T2 reduction [%]: CPMG 100 vs 5 ms; for Rank: FBS ranking from summed ranks of CSP, wLOGSY and T2 results; for Rank / Normalized FBS score / 1 - normalized FBS score / FBS score: SL1 wt; for 1 - normalized FBS score: 0 lowest, 1 highest score; for FBS score: radar chart values; for CSP [Hz]: ligand 1H CSP, [RNA]:[ligand] 1:20, pH 6.2
[7] = 2D TOCSY, RNA 150 μM, compound 1 mM, 298 K
[8] = Suppl. Table 7, ligand constant at 100, SL1 wt RNA concentration 0-250, read-out: KDest

Compound	1H,1H CSPs [ppm] C16H5-H6 (SL1 RNA; [7]) [ppm]	1H,1H CSPs [ppm] C19H5-H6 (SL1 RNA; [7]) [ppm]	1H,1H CSPs [ppm] C20H5-H6 (SL1 RNA; [7]) [ppm]	1H,1H CSPs [ppm] C21H5-H6 (SL1 RNA; [7]) [ppm]	1H,1H CSPs [ppm] C28H5-H6 (SL1 RNA; [7]) [ppm]	1H,1H CSPs [ppm] C33H5-H6 (SL1 RNA; [7]) [ppm]	1H,1H CSPs [ppm] C34H5-H6 (SL1 RNA; [7]) [ppm]	1H,1H CSPs [ppm] U9H5-H6 (SL1 RNA; [7]) [ppm]	1H,1H CSPs [ppm] U10H5-H6 (SL1 RNA; [7]) [ppm]	1H,1H CSPs [ppm] U11H5-H6 (SL1 RNA; [7]) [ppm]	1H,1H CSPs [ppm] U13H5-H6 (SL1 RNA; [7]) [ppm]	1H,1H CSPs [ppm] U17H5-H6 (SL1 RNA; [7]) [ppm]	1H,1H CSPs [ppm] U18H5-H6 (SL1 RNA; [7]) [ppm]	1H,1H CSPs [ppm] U25H5-H6 (SL1 RNA; [7]) [ppm]	1H CSPs [ppm] A12H2 (SL1 RNA) [ppm]	1H CSPs [ppm] A29H2 (SL1 RNA) [ppm]	affinity trend compared to lead A [1]	Kd (SL1 wt RNA; [8]) [µM]	Normalized inhibition rate (normalized activity score) [3]	SL1 wt inhibition rate [%] [3]	also measured
COc1ccc2nc(NC(=O)CN(C)C)sc2c1 [A.2]	0.0166	0.0190	0.0143	0.0230	0.0813	0.0085	0.0081	0.0247	0.0231	0.0462	0.0110	0.0143	0.0071	0.0361	0.1420	0.0190	increased affinity	144	0.73	36.23%	binding site / selectivity for the bulge from CSP and LB mapping, in words (SL1 RNA): bound the bulge less selectively; CSP [Hz] (SL1 Δbulge RNA): 5.52 Hz; Normalized abs. CSP SL1 wt - CSP SL1 Δbulge (normalized selectivity score) (SL1 Δbulge RNA): 1.00; Rank (SL1 Δbulge RNA): 5; T2 reduction [%] (SL1 Δbulge RNA): 67.46%; abs. CSP SL1 wt - CSP SL1 Δbulge (SL1 Δbulge RNA): 6.71; wLOGSY factor (SL1 Δbulge RNA): 0.00; Kd (SL1 wt RNA; ligand 100 μM, SL1 RNA 0 to 200 or 250 μM, 298 K, 600 MHz, pH 6.2, read-out: KD est): 144 ± 31 µM; solubility, in words [2]: increased solubility; effect on translation of SL1 wt mRNA, in words [3]: significant and selective inhibition; also recorded: highest inhibition efficiency; time-resolved SL1-driven translation, in words [3]: more subtle temporal effects; effect on translation of β-globin mRNA, in words [4]: increased translation efficiency; also recorded: boost; effect on translation of SL1 Δbulge mRNA, in words [5]: increased translation efficiency; also recorded: about half as pronounced as that for SL1 wt; wLOGSY factor [6]: 0.72; T2 reduction [%] [6]: 79.26%; Rank [6]: 30; Normalized FBS score [6]: 0.81; 1 - normalized FBS score [6]: 0.19; FBS score [6]: 30; CSP [Hz] [6]: 12.23 Hz
CNC(=O)Nc1nc2c(O)cc(O)cc2s1 [A.13]	0.0032	0.0022	0.0022	0.0045	0.0278	0.0032	0.0087	0.0067	0.0112	0.0702	0.0209	0.0051	0.0022	0.0020	0.0630	0.0190	increased affinity	312	1.00	49.50% and ~50%	1H,1H CSPs [ppm] C15H5-H6 (SL1 RNA; [7]): 0.0030 ppm; 1H,1H CSPs [ppm] C32H5-H6 (SL1 RNA; [7]): 0.0082 ppm; FBS result (CSP, wLOGSY, T2 reduction) in words (SL1 Δbulge RNA): severe line broadening; signal disappearance; also recorded: complete loss of ligand peaks; effect on translation of SL1 wt mRNA, in words [3]: significant and selective inhibition; also recorded: highest inhibition efficiency; also recorded: greatest translation inhibition; time-resolved SL1-driven translation, in words [3]: most pronounced delay and suppression; inhibition rate ([4]; relative to untreated control): ~10%; inhibition rate [5]: ~0.5%; wLOGSY factor [6]: 0.33; T2 reduction [%] [6]: 100.00%; Rank [6]: 25; Normalized FBS score [6]: 0.68; 1 - normalized FBS score [6]: 0.32; FBS score [6]: 25; CSP [Hz] [6]: 4.11 Hz
